In data set [1] the test system is retinal ganglion cells (RGCs). Particulars: cited from earlier work.
Data set [2] can be described thus: body weight of unilateral LIM chicks after 7-day LIM. It is filed as in vivo, White Leghorn chicks (Gallus gallus). Particulars: after 7-day LIM (PN17), 74 μM intravitreal x4 days. The text has this:
The present disclosure provides a method for reducing myopia progression by administering a therapeutically effective amount of celastrol via intravitreal injection to a vitreous or via a non-invasive route, such as topically to the eye, e.g., as an eye drop containing a therapeutically effective amount of celastrol administered to a cornea or conjunctiva of a subject's eye. […] Change of body weight before and after 7-day LIM and choroidal thickness of a uvea of the celastrol group after 2-hr removal of the lens from the unilateral LIM chicks following the 7-day LIM were also quantified to show no adverse side effect but an increase in choroidal thickness induced by a low-dose celastrol. […] For instance, if celastrol is administered via the intravitreal injection, based on the difference in vitreous volume between the animal model tested and the human being, the human equivalent dose of celastrol could be determined. Taking chicken's vitreous volume as an illustrative example, if the celastrol is administered at about 74 μM via intravitreal injection to the chicken's vitreous, assuming that the vitreous volume of a chicken in general is about 200 μl, based on an estimated human vitreous volume (about 4.5 ml), the human equivalent dose of celastrol via intravitreal injection is determined to be about 1.665 mM. […]

The test system of data set [3] is lens-induced myopia (LIM) chicks. Put plainly: unilateral lens-induced myopia (LIM) chick model, intravitreal injection. Type of data set: in vivo, White Leghorn chicks (Gallus gallus). The protocol:
To create a lens-induced myopia (LIM) animal model, concave lenses of −5 D were applied to the White Leghorn chicks (Gallus gallus), hatched from specific pathogen-free eggs (SPF, Jinan, China), until they were ten days old (PN10, baseline). All the animals were raised in standard cages at 25° C. with sufficient food and water daily under the 12 h:12 h light/dark cycle. The central ambient luminance over the cages was maintained at around 260 lux.
Turning to FIG. 1, starting from ten days old (PN10), the LIM chicks received four intravitreal injections in four consecutive days, i.e., PN10, PN11, PN12 and PN13 (s101). LIM chicks were randomly assigned to two groups, including LIM chicks (n=6) with vehicle injection (1% DMSO with 1% β-CDs) (101b) and LIM chicks (n=7) with celastrol injection (74 μM celastrol dissolved in 1% DMSO with 1% β-CDs) (101a), and no gender preference was selected in the experimental groupings. β-CDs were selected as a drug carrier of celastrol because of its doughnut-shaped cavities with hydrophilic outer and hydrophobic inner surfaces to form a complex with the celastrol to enhance the solubility, stability and permeation of celastrol in vivo. The freshly prepared solution (10 μl) was injected monocularly with a 0.3-mL syringe (31-gauge needle, BD Medical, Le Pont deClaix, France) into the vitreous through the sclera, choroid, and retina close to the margin of the upper orbit. Immediately following the first injection on PN10, the LIM chicks' right (or left) eyes were assigned to −5 D lenses (treated eyes 102a), and no lens was attached to the fellow eyes (control eyes 102b) (s102). The treated eyes 102a covered with lens in each LIM chick (unilateral LIM) received the subsequent celastrol injection 101a or vehicle 101b on PN11, PN12 and PN13, whereas there was no treatment for the contralateral (control) eye 102b.
After 7-day LIM (PN17), the lenses were removed for 2 hours (s103). The refractive error and ocular parameters were recorded separately at baseline (PN10), 7-day LIM (PN17), and after 2-hour recovery (PN17+2 hr) using the steak retinoscopy and high-frequency ultrasonography (s104). Refractive errors were detected using a streak retinoscope, and ocular parameters were measured using a high-frequency A-scan ultrasound system with a 30 MHz transducer (Panametrics, Inc., Waltham, MA), respectively, before and after treatments. The spherical equivalent (S.E.) was calculated from the refractive status (S.E.=spherical power+½ cylindrical power). Axial length (AL) was defined from the front of the cornea to the back of the vitreous chamber.
Biometric data obtained from unilateral LIM chicks treated with or without celastrol according to the scheme depicted in Example 1 and FIG. 1 were analyzed. First of all, after the 7-day lens treatment period (PN1, the interocular differences (differences between the lens-treated eyes and the contralateral fellow eyes) were calculated for the three ocular parameters (refractive error, vitreous chamber depth, and axial length), and the results are shown in FIGS. 2A-2C, respectively. Because choroid thickness change is believed to be an indicator of progression to myopia, the choroidal thickness was also measured after a 2-hour recovery, and the results are shown in FIG. 2D. The mean interocular differences and choroidal thickness changes are presented with ±SD. The significance between celastrol and vehicle groups was analyzed using an unpaired t-test with equal variance.

The subject of data set [4] is neuroendocrine chromaffin cells. Particulars: 1 μM celastrol; cited from earlier work.

The structures appear in SMILES notation. Where “and” joins values, the source holds several entries; their conditions need not be identical. Identical values can stand only once. Like-named read-outs stand apart in the source and are kept apart here.

The term inhibition denotes the share of the control response that was lost under treatment. For the compound `CC1=C(O)C(=O)C=C2C1=CC=C1[C@@]2(C)CC[C@@]2(C)[C@@H]3C[C@](C)(C(=O)O)CC[C@]3(C)CC[C@]12C` [celastrol], the “increase in average number of retinal ganglion cells (RGCs) compared to controls” value in data set [1] (injection of 1 mg/kg celastrol) is given as “approximately 80%”. For the same compound, in data set [1] (injection of 5 mg/kg celastrol), the “increase in average number of retinal ganglion cells (RGCs) compared to controls” value was about 78%. Besides, the “body weight compared with vehicle group” value in data set [2] is “no retardation of growth regarding body weight”. In addition, the “interocular difference in refractive error (spherical equivalent), mean±SD” value in data set [3] (74 μM celastrol, 10 μl intravitreal q.d. PN10-PN13, after 7-day LIM (PN17), lens-treated minus fellow eye, n=7) is reported as −1.68±2.03 D. Further, in data set [3] (74 μM intravitreal x4 days, after 2-hour recovery from 7-day LIM (PN17+2 hr), P=0.072 vs vehicle), the “choroidal thickness change, mean±SD” value came out at 65.98±20.89 μm. Moreover, the “interocular difference in axial length (AL), mean±SD” value in data set [3] (74 μM intravitreal x4 days, after 7-day LIM (PN17), A-scan, P=0.054 vs vehicle) stood at 0.088±0.109 mm. Besides, in data set [3] (74 μM intravitreal x4 days, after 7-day LIM (PN17), A-scan, n=7), the “interocular difference in vitreous chamber depth (VCD), mean±SD” value is listed as 0.190±0.105 mm. In addition, the inhibition at 74 µM in data set [3] (Gallus gallus, 168 h, celastrol group vs vehicle group, 74 μM intravitreal, 7-day LIM, read-out: inhibition of myopia based on refractive error data) is about 46.3%. In addition, the “averaged shift of relative myopia in interocular difference, vehicle group versus celastrol group (mean)” value in data set [3] (after 7-day LIM (PN17)) is given as −1.45 D. Moreover, in data set [3] (after 7-day LIM (PN17), P>0.05), the “enlargement of VCD in vehicle group compared with celastrol group” value came to 0.070 mm and the “numerical elongation of AL in vehicle group compared with celastrol group (mean)” value amounted to 0.174 mm. For the same compound, in data set [3] (celastrol group vs vehicle group, 74 μM intravitreal, 7-day LIM), the “inhibition of myopia based on axial length data” value is ~66.4% and ~46.2%. Moreover, the myopia progression entry in data set [3] (intravitreal injection at the dose tested (74 μM)) was “could suppress myopia progression”. Besides, in data set [4], the increase in dopamine is given as 6 fold.

These data come from patent US20250144055A1, “METHOD AND COMPOSITION FOR REDUCING MYOPIA PROGRESSION” (THE HONG KONG POLYTECHNIC UNIVERSITY, priority 2023, published 2025).
